Experimental data published in publication PMC8971402, “Author Correction: Effects of route of administration on oxytocin-induced changes in regional cerebral blood flow in humans” (Nature Communications, 2022).
Where “and” joins values, the source holds several entries; their conditions need not be identical. Identical values can stand only once.

What was measured:
[1] = Pharmacokinetics of plasmatic oxytocin after intravenous, nasal spray or nebulizer administration; details: for Concentration (plasma oxytocin): Condition IV, individual participants (Fig6A source data); for Bioavailability: individual participants, corrected source data (Fig6C)
Source text: We present a summary of three
(§1) parameters describing the pharmacokinetics of each treatment administration method. We
(§2) present the maximum plasmatic concentration achieved after dosing (Cmax), the area under the
(§3) curve (AUC) reflecting the magnitude of the variations of plasmatic oxytocin post-dosing and
(§4) the absolute bioavailability of oxytocin absorbed to the plasma, calculated as the dose-corrected
(§5) AUC of each intranasal administration divided by the dose-corrected AUC of the intravenous
(§6) administration. Data are presented as mean (1 standard error of the mean).

[2] = in vivo
Source text: We present a summary of three
as §1, §2, §3, §4, §5, §6

[3] = test system: heart rate and heart rate variability; set-up: species or system humans; details: in vivo, iv
Method: Supplementary Table 4 – Percentage of observations satisfying quality control criteria for
the pulse plethysmography analysis. Following current recommendations for heart rate data
processing and analysis, if more than 5% of the beats required correction, then we decided to
exclude these periods of observation. In some rare cases where artefacts could not be corrected,
we only included the data if at least 5 min of acquisition free of artefacts could be analysed. In
this table, we present the percentage of total data available satisfying our quality control criteria
for each treatment method of administration and time-interval, so the reader can appreciate the
amount of data effectively used in the final analysis.
Time from last drug administration offset (minutes)
We determined time-interval, treatment, and treatment
x time-interval effects on a set of time domain (heart-rate (HR) and the root mean square of the successive differences (RMSSD), frequency domain
(low (LF) and high (HF) frequencies spectral powers and high/low frequency spectral power ratio (HF/LF)) and non-linear (Approximate entropy
(ApEn), the SD1 and SD2 lines from the Poincare Plot and the detrended fluctuation scaling exponents DFAα1 and DFAα2) analysis measures of
heart rate variability. We used a repeated measures two-way analysis of variance, using subjects, treatment and time as factors, and the Greenhouse- […]

For `CC[C@H](C)[C@@H]1NC(=O)[C@H](Cc2ccc(O)cc2)NC(=O)[C@@H](N)CSSC[C@@H](C(=O)N2CCC[C@H]2C(=O)N[C@@H](CC(C)C)C(=O)NCC(N)=O)NC(=O)[C@H](CC(N)=O)NC(=O)[C@H](CCC(N)=O)NC1=O` [oxytocin], the “Concentration (plasma oxytocin)” value ([1]; Sample 2, in pg/mL) was 65.12 and 59.67 and 47.11, the Concentration (plasma oxytocin) ([1]; Sample 3) was 0.0681 ng/mL and the Concentration (plasma oxytocin) ([1]; Sample 4) was 0.0539 ng/mL. The “Concentration (plasma oxytocin)” value ([1]; Sample 4, in pg/mL) was 30.93, the “Concentration (plasma oxytocin)” value ([1]; Sample 6, in pg/mL) was 12.86 and 20.71 and the Concentration (plasma oxytocin) ([1]; Sample 7) was 0.00723 ng/mL and 0.00461 ng/mL. For the same compound, the Concentration (plasma oxytocin) ([1]; Sample 8) was 0.00377 ng/mL, the Bioavailability ([1]; Nebuliser) was 31.90% and 10.30% and 3.30% and 7.94% and 12.67% and 62.94% and 5.39% and 6.53% and 8.236% and 4.17% and 6.07% and 5.20% and 6.82% and 10.22% and 6.95% and 32.80% and the Bioavailability ([1]; Spray) was 6.85% and 11.96% and 5.38% and 16.81% and 5.32% and 6.16% and 8.93% and 4.67% and 8.4323% and 12.50% and 14.77% and 6.29% and 7.56% and 11.34% and 5.36% and 37.05%. The “Absolute bioavailability of OT absorbed to the plasma, standard nasal spray vs PARI SINUS nebulizer” value ([1]; corrected AUCs, paired t-test p = 0.438) was “no significant differences”, the Cmax ([1]; human, in vivo, iv, SEM) was 0.0643 ng/mL and the “AUC over the observation interval, intravenous OT infusion vs intranasal methods” value [2] was “significantly higher AUC”. For the same compound, the “Effect on heart rate and heart rate variability” value [3] was “did not affect heart rate or heart rate variability”.
